| melting point [°C] | SMILES |
| --- | --- |
| 100 to 105 | COc1cc(C(C)=O)ccc1OCCCN1CCCC(C(O)(c2ccc(F)cc2)c2ccc(F)cc2)C1 (centres undefined) |
| 154 to 156 | O=C(O)C[C@H](NC(=O)/C=C/C(=O)c1ccccc1)C(=O)O |
| 119 to 122 | CC(=O)c1ccc(OCC(O)COc2cccc([N+](=O)[O-])c2)cc1O (centres undefined) |
| 136 to 138 | COc1cc(OC)cc(S(=O)(=O)n2c(CCCC(=O)O)cc3nc(Cl)ccc32)c1 |
| 143 to 144 | CCCn1c(=O)c2cc(C(=O)OCC)cn2c2ccccc21 |
| 194 to 196 | Cc1ccc(CC(CS)C(=O)Nc2cccc(C(=O)O)c2C)cc1 (centres undefined) |
| 169 to 171 | O=c1c(CCCCBr)c(O)c2cccnc2n1-c1ccccc1 |
| 64 to 65 | CCOC12CC(C=C(C#N)COC)=CC=C1OCO2 (centres undefined) |
| 260 to 268 | CC1(C)c2cc3[nH]c(-c4ccncc4)nc3cc2C(=O)NC1O (centres undefined) |
| 207 to 209 | O=C(O)CSc1cccc2c1S(=S)N=N2 (centres undefined) |
| 81.5 to 83 | Cc1cc(O)c(SCC2CCCCC2)c(=O)o1 |
| 126 to 130 | Cc1ccc(-c2nnc(Cl)nc2-c2ccc(C)cc2)cc1 |
| 83 | COCCCN1C(=O)CS(=Cc2ccccc2Cl)C1=O (centres undefined) |
| 155 to 157 | Cc1ccc(OCC(=O)c2cc(C(C)(C)C)c(O)c(C(C)(C)C)c2)c(-n2nc3ccccc3n2)c1 |
| 106 to 108 | O=P(O)(O)C(F)(F)c1ccc(CNCc2ccc(C(F)(F)P(=O)(O)O)cc2)cc1 |
| 86 | CC#CCOc1ccc(S(=O)(=O)CNCC(C(=O)NO)N2CCN(S(C)(=O)=O)CC2)cc1 (centres undefined) |
| 176 to 178 | CCCOc1ccccc1-c1ccc(C(N)=O)c(=O)[nH]1 |
| > 208 | CCCCc1nn(-c2cc(NC(=O)NCCC)ccc2Cl)c(=O)n1Cc1ccc(-c2ccccc2S(=O)(=O)NC(=O)c2ccccc2Cl)cc1 |
| 252 to 255 | CN1CC2Cc3cc4c(cc3C(c3ccc([N+](=O)[O-])cc3)=NN2C1=O)OCO4 (centres undefined) |
| 159 to 161 | CCc1ccc(C(=NO)c2ccc(Cl)cc2)c(O)c1 |
| 113 to 116 | CC(C)(C)OC(=O)N[C@@H](C(=O)N1CCC[C@H]1C(=O)NCC1CCc2n[nH]cc2C1)C(c1ccccc1)c1ccccc1 (some centres undefined) |
| 205 to 206 | Cn1cnc(COc2nn3c(-c4ccccc4)nnc3cc2N2CCOCC2)n1 |
| 208 to 210 | CC1CCCN(c2ccc(Cl)cc2C(C)C(C(N)=O)c2ccc(C(=O)O)cc2)C1 (centres undefined) |
| 295 to 300 | CC(=O)Nc1ccc2oc(=O)[nH]c2c1 |

| melting point [°C] | SMILES |
| --- | --- |
| 149 to 150 | CCOC(=O)c1c(-c2ccc(OC)cc2)n2c3c(cccc13)OC(CCN1CCN(c3cc(C)ccn3)CC1)C2 (centres undefined) |
| 124 to 125 | Cc1nc2c(O)cccn2c(=O)c1Cc1ccccc1 |
| 159 to 160 | CNC(=O)c1ccccc1-c1cc(-c2ccccc2)on1 |
| 223 | CC(C)N=C1C(c2ccccc2)=C(c2ccccc2)C(c2ccccc2)=C1c1ccccc1 |
| 74 to 78 | O=[N+]([O-])c1ccc(Oc2ccc(C(F)(F)F)cc2Cl)cc1SCl |
| 163 to 165 | COc1c(Cl)ccc(-c2cc(N)c(Cl)c(C(=O)NOC/C=C/Cl)n2)c1F |
| 191 to 193 | CC1(C)OC(=O)C(=CNc2ncnc3ccccc23)C(=O)O1 |
| 240 to 241 | COc1cc(Nc2c(C#N)cnc3cc4cc(OC)c(OCCN5CCOCC5)cc4cc23)c(Cl)cc1C |
| 155 to 156 | CS(=O)(=O)c1ccc(-c2oc(C(c3ccccc3)c3ccccc3)nc2-c2ccc(F)cc2)cc1 |
| 38 to 40 | CC#CCOCCCCCCCCCCCCOC(=O)C1CC1 |
| 64 to 66 | N#CC(CCOc1ccccc1)(Cn1cncn1)c1ccccc1 (centres undefined) |
| 67 to 71 | CCCC[C@H](NC(=O)[C@H](CCC(=O)O)NC(=O)OCc1ccccc1)C(=O)CSCc1ccco1 |
| 150 to 152 | COC(=O)CNC(=O)c1ccc(C(=O)NS(=O)(=O)c2ccc(OC)cc2)cn1 |
| 142 to 143 | O=c1c(N2CCNCC2)nc2ccc(F)cc2n1-c1ccccc1 |
| 49 to 50 | O=C1C=C(c2ccccc2C(F)(F)F)CO1 |
| 104 to 106 | CCCCc1c(OC)cc(C(=O)O)nc1Cl |
| 87.5 to 88 | CCN(CC)c1ccc2ccc(=O)oc2c1 |
| 96 to 98 | COC(=O)c1c(Cl)cc(Cl)cc1NC(=O)CSc1ccc(NCc2ccc(Cl)cc2)cc1 |
| 166 to 168 | CCc1nn(C2CCC2)c2cc(C(=O)Nc3c(Cl)cncc3Cl)ccc12 |
| 81 | CC(C)(C)OC(=O)N1C(=O)C(C2=COc3ccccc3O2)=C(c2cn(C(=O)OC(C)(C)C)c3cc(OCc4ccccc4)ccc23)C1=O |
| 128 to 130 | COC(C(N)=O)C(=O)O (centres undefined) |
| 179 to 182 | COc1ccc(C(Cc2ccncc2)c2ccc(CO)cc2)cc1OC1CCCC1 (centres undefined) |
| 231 to 233 | O=C(Nc1ccc(Cl)cc1)Nc1ccc2c(c1)OC(F)(F)O2 |
| 155 to 157 | CC(C)c1nc(C(N)(C(F)(F)F)C(F)(F)F)[nH]c1-c1ccc(S(C)(=O)=O)cc1 |

| melting point [°C] | SMILES |
| --- | --- |
| 152 | CN1CCC(=C2c3ccc(F)cc3CCn3ccnc32)CC1 |
| 131 to 133 | COc1cccc(C2c3ccccc3C(c3ccc4c(c3)OCO4)C2C(=O)O)c1 (centres undefined) |
| 78 to 80 | O=C(NCCCCCCCCCCCO[N+](=O)[O-])c1ccc(N2CCNCC2)nc1 |
| 190 | O=C(Nc1ncnc2c1c(Cl)cn2C1CC(O)C(CO)O1)c1ccccc1 (centres undefined) |
| 186 to 187 | Cc1cn(CCCCc2ccccc2)c2ccc(C(=O)Nc3cccc4c(=O)cc(-c5nnn[nH]5)oc34)cc12 |
| 125 to 130 | CC(=O)N1Cc2cccn2N(C)c2ccncc21 |
| 82.5 to 83.5 | COC(CC(=O)c1cccc(Br)c1)C(=O)O (centres undefined) |
| 124 to 128 | Cc1cc(C(=O)O)cc(C)c1OCCNC(=O)C1Cc2ccccc2N1S(=O)(=O)c1ccc(-c2ccc(F)cc2)cc1 (centres undefined) |
| 148 to 150 | CC(=O)OCc1ccc2oc(=O)c(C(=O)Oc3cc(F)ccc3Br)cc2c1 |
| 121 to 123 | CCC(=O)Nc1cc(-c2sc(C(C)=O)nc2-c2cccc(C)c2)ccn1 |
| 170 to 172 | COc1ccc(C(N)=Nc2ccc(C(=O)O)cc2)cc1C(C)(C)C |
| 181 to 183 | CCOC(=O)c1ncn(-c2nncs2)c1N |
| 99 to 100 | FCCOc1cccc(CBr)c1OCCF |
| 174 to 175 | COc1ccc2c(c1)CCCC2(CO)NC(=O)c1c(F)cccc1F (centres undefined) |
| 79 to 85 | O=C(Cl)c1ccc(C#Cc2ccccc2C(=O)Cl)cc1 |
| 64 to 65 | CSC(=NCCSCc1nccs1)NC(=O)c1ccccc1 |
| 157 to 160 | N#CCOc1ccc2cc(-c3csc(-c4ccccc4)n3)ccc2c1Br |
| 189 to 190 | CC(=O)c1cccc(C2=C(c3ccc(S(C)(=O)=O)cc3)OC(C)(C)C2=O)c1 |
| 156 to 158 | COc1ccc2c(=O)c(-c3ccccc3)coc2c1 |
| 224 to 225 | CCOc1cc(Oc2ccc(S(C)(=O)=O)nc2)cc2cc(C3=NCC(CC(=O)NC)S3)[nH]c12 (centres undefined) |
| 84 to 86 | CO[C@@H](C(=O)N[C@H]1CC[C@@H](OC(=O)C2CCCCCC2)CNC1=O)[C@H](O)[C@@H](O)[C@H](O)/C=C/C(C)(C)C |
| 106 to 108 | OC(CCn1ccnc1)c1ccccc1 (centres undefined) |
| 155 | CC(=O)c1c(CBr)n(S(=O)(=O)c2ccccc2)c2ccc(Cl)cc12 |
| 216 to 218 | CC(C)(C)c1cc(C=C2CCNC2=O)cc(C(C)(C)C)c1O |

| melting point [°C] | SMILES |
| --- | --- |
| 166 to 167 | O=C(c1ccccn1)c1cnn2c(-c3cccc(C(F)(F)F)c3)ccnc12 |
| 150 | COc1ccc(-c2nc(CCCCCc3nnn[nH]3)oc2-c2ccc(OC)cc2)cc1 |
| 144 to 145 | COc1ccc(Cl)cc1Cn1nc(-c2ccc(C(F)(F)F)cc2)oc1=O |
| 104 to 106 | CCS(=O)(=O)N(Cc1cccnc1)c1ccc(Cl)cc1 |
| 215 | COC(=O)c1c(C)n(-c2ccccc2)c(C)c(C(=O)OC)c1=O |
| 75 to 77 | COc1ccc2cc(I)sc2c1 |
| 77.5 | CC#CCOc1cc(N(C)c2cccc(F)c2F)ncn1 |
| 148 to 149 | Cc1oc(C=Cc2ccccc2Cl)nc1CC(=O)O |
| 116 to 117 | C[C@@H]1CN(C(=O)[C@@](C)(O)C(F)(F)F)[C@@H](C)CN1S(=O)(=O)c1cccs1 |
| 53 to 55 | O=C/C=C/C=C/c1ccc(OCC(F)(F)C(F)F)cc1 |
| 78.5 to 82 | CNC(Cc1ccccc1NC(=O)C(C)(C)C)c1cccs1 (centres undefined) |
| 151 to 152 | CCc1sc(N)nc1-c1cc(Br)no1 |
| 55 to 56 | COCCCOc1cc(C[C@@H](C(=O)N2C(=O)OC[C@H]2Cc2ccccc2)C(C)C)ccc1OC |
| 326 to 327 | Clc1cc(Nc2nnc(-c3ccc4nonc4c3)s2)ccc1Br |
| 80 to 82 | CC(=O)Oc1ccccc1C(=O)NC1CCN(CCCOc2ccccc2C#N)CC1 |
| 72 to 75 | CCCC=Cc1c(C(C)C)nc(C(C)C)c(CO)c1-c1ccc(C)cc1 |
| 148 to 151 | Fc1cc(-n2cnnn2)ccc1-c1ccc2oc(C3CCNCC3)nc2c1 |
| 204 to 207 | CNC(=O)c1cc(N2CCOCC2)cc([N+](=O)[O-])c1 |
| 130 to 132 | CC(=O)c1ccc(N2CCCCC2)c(S(N)(=O)=O)c1 |
| 169 to 172 | CS(=O)(=O)c1ccc(-c2cnn(Cc3ccsc3)c(=O)c2-c2ccc(F)cc2)cc1 |
| 63 to 65 | CN(CCCS(=O)CCCC(F)(F)C(F)(F)F)CCOc1ccc(C2=C(c3ccccc3)CCCc3cc(O)ccc32)cc1 (centres undefined) |
| 190 to 194 | Nc1ccc(C(=O)NCC(=O)O)c(F)c1 |
| 231 to 234 | CSc1ccc(Nc2nc(=O)cc(N)n2-c2ccc(C)cc2)cc1 |
| 172 to 175 | CCc1oc2ccccc2c1C(=O)c1ccc(OCC(=O)O)cc1 |

| SMILES | melting point [°C] |
| --- | --- |
| CN1Cc2c(Cl)ncn2-c2cccc(Cl)c2C1=O | 211 to 212 |
| Nc1nc(O)cc(CCl)n1 | 195 to 197 |
| Cc1cc2cc(C3CCNCC3)oc2cc1C | 77 to 78 |
